Several values for one entry are separate records, joined by “and”; a condition that tells them apart may be missing. Identical values can stand only once.
Test: excess molar enthalpy (molar enthalpy of mixing); xn = mol fraction of the nth substance listed
Details: 298.15 K, 101 kPa, Liquid, Flow calorimetry

CCCCCC [hexane] + CCCCO
Details | excess molar enthalpy [kcal/mol]
x2 = 0.2065 | 0.128
x2 = 0.2516 | 0.129
x2 = 0.405 | 0.133
x2 = 0.5028 | 0.12
x2 = 0.6056 | 0.105
x2 = 0.7505 | 0.0658
x2 = 0.8055 | 0.0521

CCCCN(CCCC)CCCC [tributylamine] + CCCCCC
Details | excess molar enthalpy [kcal/mol]
x1 = 0.05 | -0.00112
x1 = 0.0995 | -0.00182
x1 = 0.1495 | -0.0022
x1 = 0.1997 | -0.0022
x1 = 0.2498 | -0.0021
x1 = 0.2992 | -0.00189
x1 = 0.3498 | -0.00167
x1 = 0.3991 | -0.00143
x1 = 0.449 | -0.00122
x1 = 0.4993 | -0.00103
x1 = 0.5488 | -0.000837
x1 = 0.599 | -0.000645
x1 = 0.6492 | -0.000502
x1 = 0.6989 | -0.000382
x1 = 0.7495 | -0.000311
x1 = 0.7991 | -0.000239
x1 = 0.8497 | -0.000191
x1 = 0.9 | -0.000143
x1 = 0.9501 | -9.56e-05

CCCCN(CCCC)CCCC [tributylamine] + CCCCO
Details | excess molar enthalpy [kcal/mol]
x2 = 0.0505 | 0.00913
x2 = 0.1006 | 0.0104
x2 = 0.1507 | 0.00648
x2 = 0.2009 | 0.00115
x2 = 0.2511 | -0.00574
x2 = 0.3013 | -0.0113
x2 = 0.3519 | -0.0181
x2 = 0.4018 | -0.024
x2 = 0.4514 | -0.0301
x2 = 0.5014 | -0.0352
x2 = 0.5513 | -0.0402
x2 = 0.6014 | -0.0439
x2 = 0.6512 | -0.0471
x2 = 0.7011 | -0.0489
x2 = 0.7517 | -0.0498
x2 = 0.8013 | -0.0491
x2 = 0.8514 | -0.0465
x2 = 0.9004 | -0.0403
x2 = 0.9503 | -0.0274
x2 = 0.9698 | -0.0182
x2 = 0.9853 | -0.0055

CCCCCCCCN(CCCCCCCC)CCCCCCCC [trioctylamine] + CCCCCC
Details | excess molar enthalpy
x1 = 0.0312 | -0.00115 kcal/mol and -0.00117 kcal/mol and -0.0012 kcal/mol
x1 = 0.0625 | -0.0021 kcal/mol and -0.00217 kcal/mol and -0.00208 kcal/mol
x1 = 0.0938 | -0.00249 kcal/mol
x1 = 0.125 | -0.00294 kcal/mol and -0.00277 kcal/mol
x1 = 0.1875 | -0.00301 kcal/mol and -0.00308 kcal/mol
x1 = 0.25 | -0.00263 kcal/mol and -0.00253 kcal/mol
x1 = 0.3125 | -0.00213 kcal/mol
x1 = 0.375 | -0.00179 kcal/mol
x1 = 0.4375 | -0.00155 kcal/mol
x1 = 0.4999 | -0.00127 kcal/mol
x1 = 0.5625 | -0.00098 kcal/mol
x1 = 0.6249 | -0.000669 kcal/mol
x1 = 0.625 | -0.000693 kcal/mol
x1 = 0.6873 | -0.000526 kcal/mol
x1 = 0.75 | -0.000406 kcal/mol
x1 = 0.8124 | -0.000215 kcal/mol and -0.000167 kcal/mol
x1 = 0.8749 | -9.56e-05 kcal/mol
x1 = 0.875 | -2.39e-05 kcal/mol
x1 = 0.9374 | -4.78e-05 kcal/mol

CCCCCCCCN(CCCCCCCC)CCCCCCCC [trioctylamine] + CCCCO
Details | excess molar enthalpy
x2 = 0.0623 | 0.0383 kcal/mol
x2 = 0.1246 | 0.053 kcal/mol
x2 = 0.1877 | 0.0618 kcal/mol
x2 = 0.2503 | 0.0668 kcal/mol
x2 = 0.3122 | 0.0689 kcal/mol
x2 = 0.3747 | 0.0696 kcal/mol
x2 = 0.4373 | 0.0682 kcal/mol
x2 = 0.5 | 0.0651 kcal/mol
x2 = 0.5625 | 0.0615 kcal/mol
x2 = 0.6251 | 0.0558 kcal/mol
x2 = 0.6876 | 0.0467 kcal/mol
x2 = 0.7501 | 0.0353 kcal/mol
x2 = 0.8125 | 0.0241 kcal/mol
x2 = 0.875 | 0.0152 kcal/mol and 0.015 kcal/mol
x2 = 0.9375 | 0.00612 kcal/mol
